From patent US12508280B2, “Formulations for improving gut health” (DSM IP ASSETS B.V., priority 2018, dated 2025) come the findings set out here.

Test [1] concerns fecal suspension from the selected donor. As to the kind of experiment: Intestinal batch fermentation, SCFA production (first set). Type of test: cell-based, human. As to conditions: 5× dose; after 48 h fermentation; vs corresponding control. On the procedure:
In a first set of in vitro experiments at the start of intestinal batch fermentation incubation, all test ingredients were added from stock solutions to the modified nutritional medium, containing (g/l): 2.5 K2HPO4, 10.9 KH2PO4, 2 NaHCO3, 2 yeast extract, 2 peptone, 1 mucin, 0.5 cysteine, 2 Tween 80, 2 glucose, 2 starch, 2 cellobiose, 0.1 NaCl, 0.01 MgSO4·7H2O, 0.01 CaCl2·6H2O, 0.05 hemin, 0.5 bile salts.
The other compounds were prepared in ethanol: • Vitamin K1 (VK1), • MEG-3 0080 EE Oil (MEG-3 0080 EE), • MEG-3 4535 EE Oil (MEG-3 4535 EE), • MEG-3 8000 EE Oil (MEG-3 8000 EE).
(§1) Since ethanol is known to have antimicrobial effects, two blanks for each type of stock solution were included. As a source of the microbial community, a freshly prepared fecal suspension from the selected donor was added to the reactors. […] All tests, except the blanks, were performed in single repetition, resulting in 40 independent incubations, as specified in Table 1. Incubation conditions of the pre-screening experiment and the final experiment were 48 h at 37° C., under shaking (90 rpm) and anaerobic conditions. DNA were extracted from effluent samples collected from each fermentation flask before (0 h fermentation) and after fermentation (24 h fermentation) and use for microbiome composition analysis by Shotgun sequencing. Effluent samples were collected from each fermentation flask before (0 h fermentation) and after fermentation (48 h fermentation), sterilized by filtering through 0.22 μm filters and used for short chain fatty acids (SCFA), quantification of immunological biomarkers and in vitro analysis in cell culture systems.
Short chain fatty acids (SCFA) are an assessment of the microbial carbohydrate metabolism (acetate, propionate and butyrate) or protein metabolism (branched SCFA) and can be compared to typical fermentation patterns for normal GI microbiota. Samples for SCFA analysis were analyzed after 0, 6, 24 and 48 h of incubation for both set of in vitro experiments, above.
SCFA were extracted from the samples with diethyl ether, after the addition of 2-methyl hexanoic acid as an internal standard. Extracts were analysed using a GC-2014 gas chromatograph (Shimadzu's-Hertogenbosch, the Nether-lands), equipped with a capillary fatty acid-free EC-1000Econo-Cap column (dimensions: […]×0.53 mm, film thickness […]; Alltech, Laarne, Belgium), a flame ionization detector and a split injector. The injection volume was […] and the temperature profile was set from 110 to 160° C., with a temperature increase of 6° C. min-1. The carrier gas was nitrogen and the temperature of the injector and detector were […] and 220° C., respectively. The production of unbranched and branched SCFA was calculated by summing the molar concentrations of acetate, propionate, butyrate, valerate and caproate, and summing isobutyrate, isovalerate and isocaproate molar concentrations, respectively. The total SCFA production was defined as the sum of unbranched and branched SCFA.

A further test has as its system Bifidobacterium. In words: Microbiome composition by shotgun sequencing: Bifidobacterium (first set). Type of test: cell-based, human. Conditions: after 24 h fermentation, vs corresponding control. The procedure: as §1
(§2) For the first set of in vitro experiments, total DNA was extracted from all samples collected throughout the study using the QIAamp DNA stool minikit (Qiagen, Crawley, United Kingdom) according to the manufacturer's instructions, apart from addition of a bead-beating step and increasing the lysis temperature to 95° C. as described previously (McCormack et al., 2018).
(§3) After DNA isolation, DNA was quantified using the Qubit High Sensitivity DNA assay (Thermo Fisher). Whole metagenome libraries were then prepared using the Illumina Nextera XT kit (Illumina) in accordance with the manufacturer's instructions, with the following modifications: Firstly, tagmentation time was increased to 7 min and secondly, following incorporation of indices and Ampure purification of the products, the samples were each individually sized by running on an Agilent High Sensitivity Chip (Agilent) and quantified using the Qubit High Sensitivity DNA assay (Thermo Fisher) in accordance with Teagasc Sequencing Platform SOPs. The samples were then pooled equimolarly and sequenced on the Illumina NextSeq 500 with a NextSeq 500/550 v2 high-output reagent kit (300 cycles). All sequencing was done in the Teagasc sequencing facility in accordance with standard Illumina sequencing protocols.
(§4) Delivered raw FASTQ sequence files were quality checked as follows: poor quality and duplicate read removal, as well as trimming was implemented using a combination of SAM and Picard tools. Taxonomy was assigned to the reads using the Kraken software and functional analysis was performed with Super focus.

Test [2] has as its system Co-cultures of Caco-2 and HT29-MTX-E12 cells. As to the kind of experiment: Barrier integrity, leaky gut model, apical stressor Rhamnolipids. Type of test: cell-based. As to conditions: vs corresponding control; for Lucifer yellow, apical induction of leaky gut cellular model: 48 h fermentation samples; for TEER, apical induction of leaky gut cellular model: 48 h minus 0 h fermentation samples.
Description: Since ethanol is known to have antimicrobial effects, two blanks for each type of stock solution were included. As a source of the microbial community, a freshly prepared fecal suspension from the selected donor was added to the reactors. […] All tests, except the blanks, were performed in single repetition, resulting in 40 independent incubations, as specified in Table 1. Incubation conditions of the pre-screening experiment and the final experiment were 48 h at 37° C., under shaking (90 rpm) and anaerobic conditions. […] Effluent samples were collected from each fermentation flask before (0 h fermentation) and after fermentation (48 h fermentation), sterilized by filtering through 0.22 μm filters and used for short chain fatty acids (SCFA), quantification of immunological biomarkers and in vitro analysis in cell culture systems.
(§5) Co-cultures of Caco-2 and HT29-MTX-E12 cells were used to assess the protective effect of the supernatants before (0 h) and after fermentation (48 h) for both sets of in vitro experiments above.
(§6) CaCo-2 ECACC 86010202 and HT29-MTX-E12 ECACC 12040401 cells (both from European Collection of Cell Cultures, Salisbury, UK) were both cultured at 37° C., in atmosphere of 5% CO2 in DMEM medium supplemented with 4.5 g/L D-Glucose, 4 mM L-Glutamine, 1 mM Sodium Pyruvate, 1% MEM Non-Essential Amino Acids, 50 μg/mL Gentamicin (Life Technologies Europe B.V., Zug, Switzerland) and 10% heat-inactivated FBS (Sigma-Aldrich, Buchs, Switzerland). Sub-confluent cells were trypsinized using 0.25% Trypsin/EDTA (Life Technologies Europe B.V., Zug, Switzerland) and passaged at a ratio of 1:5-1:10 twice a week. Cells between passages 55 and 85 were used for this study.
(§7) Cells were seeded at a density of 20000 cells/well in a 7:3 ratio (Caco-2:HT29-MTX-E12) in Corning HTS Transwell-24 system PET membranes, 0.4 μM pore size, cell growth area 0.33 cm2/well (Corning BV, Amsterdam, Netherlands) and cultured as described above. Media was changed every second to third day.
For both sets of in vitro experiments, the integrity of cell monolayers after the stressor test was evaluated by both TEER values and by measuring the transport of Lucifer yellow from apical to basolateral compartments (Leaky gut model). A prewarmed HBSS transport buffer composed of Hank's Balanced Salt Solution pH 7.4 with Ca2+ and Mg2+, containing 5.5 mM D-(+)-glucose, Sodium Bicarbonate, and supplemented with 4 mM L-glutamine, 20 mM HEPES (Life Technologies Europe B.V., Zug, Switzerland) was used for all permeability experiments. The inserts were rinsed twice with HBSS using a reservoir tray, 100 μl HBSS were then added to the apical site of the inserts and subsequently moved to new wells with fresh HBSS and allowed to equilibrate at 37° C. for 60 min in the incubator followed by TEER measurement to obtain baseline resistance readings.
Lucifer Yellow CH dilithium salt (Sigma-Aldrich, Buchs, Switzerland) was dissolved in HBSS at a final concentration of 100 μg/ml. Basolateral stressor EtOH (Merck, KgaA, Darmstadt, Germany) was diluted to 5% in HBSS. Apical Stressor Rhamnolipids R90 (AGAE Technologies, Corvallis, USA) was dissolved in HBSS containing Lucifer Yellow at a final concentration of 350 μg/ml. All solutions were prepared freshly each time.
The HBSS transport buffer from the basolateral chamber was aspirated first, then the HBSS from the apical chamber and replaced with Lucifer yellow solution. For the apical stressor test, Lucifer yellow solution containing 350 μg/ml Rhamnolipids or Lucifer yellow solution without stressor for the control wells was loaded into the apical compartment, blank HBSS was subsequently added to the basolateral chamber.

Test [3] concerns genes involved in Acetyl-CoA fermentation to Butyrate pathway. As to the kind of experiment: Shotgun sequencing functional analysis: butyrate pathway genes (first set). Type of test: cell-based, human. Conditions: after 24 h fermentation, vs corresponding control. The procedure: as §1, §2, §3, §4
The test system of test [4] is fecal microbial community. As to the kind of experiment: Microbiome composition by shotgun sequencing: alpha diversity (first set). Type of test: cell-based, human. As to conditions: after 24 h fermentation, vs corresponding control. On the procedure:
as §1, §2, §3, §4

In the next test the test system is HT29 cells. As to the kind of experiment: HT29 cell culture, quantification of immunological biomarkers. Type of test: cell-based. As to conditions: 5× dose; effluent from 24 h fermentation; vs corresponding control. On the procedure: as §1, with “([…]), […]” for “(0 h fermentation) and after fermentation (48 h fermentation), sterilized by filtering through 0.22 μm filters and used for short chain fatty acids (SCFA), quantification of immunological biomarkers and in vitro analysis in”
For both sets of in vitro experiments, HT29 cells were obtained from American Type Culture Collection (Manassas, VA). Cells were cultured in DMEM supplemented with 10% fetal bovine serum (FBS), 50 units/ml penicillin, 50 μg/ml streptomycin, L-glutamine, and nonessential amino acids (Life Technologies Europe B.V., Zug, Switzerland). Cells were seeded into 12-well plates at 8×10^5 cells per well and used after 2 days of preculture. They were starved in DMEM containing 0.25% FBS for 18 h before treatment. Cells were treated for 24 hours with TNF-α at 100 ng/mL or fermentation supernatants which were sterile filtered and diluted 1:20 in DMEM containing 0.25% FBS. All treatments were done in triplicate. Consequently, cytokines, chemokines and interleukins were quantified in HT29 supernatants using the Luminex Technology (LiquiChip Workstation IS 200, Qiagen, Hilden, Germany) with Bio-Plex Pro Human Cytokine Panel kits (Bio-Rad, Hercules, CA) or with Luminex Screening Assay kits (R&D Systems, Inc., Minneapolis, MN), following the manufacturer's instructions. The data were acquired with the Luminex IS 2.3 software and evaluated with the LiquiChip Analyser software (Qiagen, Hilden, Germany).

Test [5] relates to Co-cultures of Caco-2 and HT29-MTX-E12 cells. As to the kind of experiment: Barrier integrity (TEER), healthy gut model. In kind it is cell-based. As to conditions: 48 h minus 0 h fermentation samples, vs corresponding control.
Description: as §5, §6, §7
For both sets of in vitro experiments, after cells being 13 days in culture, initial transepithelial electrical resistance (TEER) readings were obtained using an EVOM2 Voltohmmeter (EVOM, World Precision Instruments, Berlin) equipped with STX100 Electrodes. TEER values correlate with the tightness of the confluent monolayer (Srinivasan et al. 2015).
The background TEER (insert) was subtracted from total TEER (cell monolayer plus insert) to yield the monolayer resistance and then normalized to surface area by multiplying with the area of the insert (Srinivasan et al. 2015). The integrity of the monolayer was determined at basal level by measuring TEER. A TEER of 300 Ωcm2 was regarded as a tight monolayer (see results section). Afterwards, the cells were treated with sterile filtered fermentation supernatants or fermentation medium as a control (diluted 1:20 in growth media). After 24 h incubation the resistance across each cell monolayer was measured again and the percentage change in TEER compared to initial TEER for each insert was calculated to represent a healthy gut model. All TEER measurements were done by placing the plates containing the inserts on a 37° C. warming plate and were performed in the same duration.
The subject of test [6] is fecal suspension from the selected donor. As to the kind of experiment: Gas production in closed colon incubations (first set). Type of test: cell-based, human. Conditions: after 48 h fermentation, vs corresponding control. The procedure:
The colon incubations were performed in closed incubation systems. This allowed us to evaluate the accumulation of gasses in the headspace, which can be measured with a pressure meter. Gas production is a measure of microbial activity, and thus of the speed of fermentation of the potentially prebiotic substrates. It can be used as an indication for bloating and digestive wellbeing upon prebiotic consumption.
as §1
For both sets of in vitro experiments, colon incubations were performed in closed incubation systems as described above. This allowed to evaluate the accumulation of gasses in the headspace, which can be measured with a pressure meter. Gas production is a measure of microbial activity, and thus of the speed of fermentation of the potentially prebiotic substrates

The structures appear in SMILES notation.

With `Cc1cc2nc3c(=O)[nH]c(=O)nc-3n(C[C@H](O)[C@H](O)[C@H](O)COP(=O)(O)O)c2cc1C` [Vitamin B2-5-phosphate, Riboflavin-5-phosphate], the butyrate production result in test [1] is reported as “increase butyrate production”. The Bifidobacterium relative abundance result in the test on Bifidobacterium (0.2× dose) and with Bifidobacterium (1× dose) was “increase Bifidobacterium relative abundance” throughout. In addition, in test [2] (0.2× dose), the “Lucifer yellow, apical induction of leaky gut cellular model” value is listed as “decrease Lucifer yellow”. Besides, in test [2] (0.2× dose), the “TEER, apical induction of leaky gut cellular model” value is “increase TEER”. The “relative abundance of genes involved in Acetyl-CoA fermentation to Butyrate pathway” value in test [3] (0.2× dose) and in test [3] (1× dose) was “increase relative abundance” throughout. For the same compound, the “microbiome alpha diversity (Shannon diversity index)” value in test [4] (0.2× dose) and in test [4] (1× dose) was “increase microbiome diversity” throughout. In addition, the “IL-8 production by HT29 cells” value in the test on HT29 cells is reported as “increase IL-8 production”. Further, the “TEER, healthy gut cellular model” value in test [5] (0.2× dose) is recorded as “increase TEER”.

With `O=C1O[C@H]([C@@H](O)CO)C(O)=C1O` [Vitamin C, Ascorbic acid], the gas production entry in test [6] (1× dose) and in test [6] (5× dose) was “reduced gas production” in each case. Besides, the Bifidobacterium relative abundance result in the test with Bifidobacterium (1× dose) was “increase Bifidobacterium relative abundance”. In addition, the “Lucifer yellow, apical induction of leaky gut cellular model” value in test [2] (0.2× dose) and in test [2] (1× dose) was “decrease Lucifer yellow” throughout. For the same compound, the “TEER, apical induction of leaky gut cellular model” value in test [2] (0.2× dose) and in test [2] (1× dose) was “increase TEER” in each case. Also, in test [3] (5× dose), the “relative abundance of genes involved in Acetyl-CoA fermentation to Butyrate pathway” value is “increase relative abundance”. For the same compound, in test [4] (5× dose), the “microbiome alpha diversity (Shannon diversity index)” value is recorded as “increase microbiome diversity”. In test [5] (1× dose), the “TEER, healthy gut cellular model” value was “increase TEER”.
